# Experiments:
# [1] = test system: S. cerevisiae R560-1 / R560-1C (fks1-2); test: liquid MIC assay of resistant clone; assay type: cell-based, Saccharomyces cerevisiae
# Experimental: Strain W303-1A was transformed by the spheroplast method (MYG) with yeast genomic libraries obtained from D. Botstein (1982. Cell, 28:145-154). Transformants selected on uracil dropout medium were pooled and stored at -80° C. in 20% glycerol. After determining the titer (colony forming units(CFU)/ml), aliquots of the stocks were spread at .congruent.5×10^3 CFU per plate onto uracil dropout medium containing the semisynthetic echinocandin L-733,560 at 0.5 mcg/ml or 1.25 mcg/ml. This concentration of L-733,560 is sufficient to select for resistant clones. Twenty-seven drug resistant colonies were isolated. […] Briefly, L-733,560 was serially diluted across the wells of a sterile microtiter plate such that the concentration in each row ranged from 16 to 0.03 mcg/ml in 2-fold increments after an equal volume of a cell suspension in liquid uracil dropout medium was added. After 24 h at 30° C., plates were read in a spectrophotometer at a wavelength of 600 nm, and the percent of control growth in each well (relative to a no-drug control well) was calculated. […]
# Because this strain was isolated as a transfornant from the genomic library, it was expected that resistance would be due to the gene residing on the plasmid contained in R560-1. […] R560-1C was mated to the wild type strain W303-1B, sporulated, dissected, and the sensitivity to L-733,560 quantitated by liquid MIC assay. […]
# [2] = test system: S. cerevisiae YFK798 (fks1-1 + CN); test: primary screen, zone size on agar (calcineurin counter screen); assay type: cell-based, Saccharomyces cerevisiae; details: 20 ng FK506, 10 mcg CsA, 10 mcg L733,560, 20 mcg aculeacin, 20 mcg papulacandin, 48 h
# Experimental: Counter screening strains were devised for identifying calcineurin inhibitors. Overexpression of yeast calcineurin in the fks1-1 mutant (strain YFK798) constitutes the most general of these. […] Glucan synthase inhibitors show neither effect and thus can be distinguished from calcineurin inhibitors.
# (§1) Each strain is grown at 28°-30° C. in YPAD/10 mM CaCl2 medium with shaking at 220 rpm (to mid or late log phase). The cultures are diluted 1:10 with water, and the OD values of the dilutions are measured at 600 nm (against a blank of YPAD/10 mM CaCl2 similarly diluted 1:10 in water). The OD value is multiplied by 10 to estimate the OD of the culture. Portions (100 ml) of YPAD/10 mM CaCl2 medium containing 1.5% agar, equilibrated at 45° C. in a water bath, are seeded with culture such that the final cell density in the agar would have an OD value of 0.015 (i.e., 3×10^6 cfu/ml; a sample calculation is provided below). The seeded agar is poured into 500 cm^2 Nunc plates. Once the agar plates have solidified, 10 mcL aliquots of samples containing test compounds, such as fermentation extracts, are dissolved in water, 100% methanol or ethanol, or up to 50% DMSO and are placed on each member of the two-plate set in 11 by 8 arrays.
# (§2) The plates are incubated for 48 h at 28°-30° C. Diameters of the zones are read to the outermost edge and recorded in mm. The clarity of the zone is reported as clear (no designation), hazy (h), or very hazy (vh). Very hazy zones are best seen by viewing the plate under an elevated light placed between the assay dish and a dark wall.
# [3] = molecular target: 1,3-beta-D glucan synthase from X2180-1A (Saccharomyces cerevisiae, UniProt P38631); test: 1,3-beta-D glucan synthase assay, membrane preparation; assay type: biochemical; details: membranes of X2180-1A
# Experimental: Cell free extracts were prepared from mutant and wild type cells grown to logarithmic phase as previously described (Kang and Cabib, PNAS, 83:5808-5812, 1986). After homogenization with glass beads, the unbroken cells and debris were removed by a low speed centrifugation (1,000×gfor 5 min). The supernatant fluids were centrifuged at 100,000×g for 60 min and the pellets were washed with 2.5 ml (per gram of wet cells) of buffer containing 0.05M potassium phosphate (pH 7.5), 0.5 mM DTT, and 1.0 mM PMSF. The washed pellet was resuspended in the same buffer containing 5% glycerol. This served as the microsomal membranes source containing both chitin and glucan synthase enzymatic activities. The standard 1,3-beta-D glucan synthase reaction was initiated by mixing 35 mcg protein in cocktail I, which included TEK buffer (125 mM Tris chloride, pH 7.5, 31 mM KF, and 1 mM EDTA), 25% PBS, pH 7.0, 3.31 mcM GTP-gamma-S, and 0.25% BSA in a total volume of 69 mcL, with cocktail II, which included 4 units alpha-amylase, 25 mcg UDP-glucose, and 1 microCi UDP-^3 H-glucose, in a total volume of 11 mcL. Following 150 minutes of incubation at 30° C., the incorporation of UDP-^[…] into glucan was measured after precipitation with trichloroacetic acid.
# Crude enzyme preparations associated with cell membranes were tested for glucan and chitin synthesis activities. […]
# Pneumocystis carinii = details: rat model of P. carinii pneumonia; Schmatz et al. 1990; cited from earlier work
# [4] = test system: S. cerevisiae YFK532-7C (fks1-1); test: primary screen, zone size on agar; assay type: cell-based, Saccharomyces cerevisiae; details: 20 ng FK506, 10 mcg CsA, 10 mcg L733,560, 20 mcg aculeacin, 20 mcg papulacandin, 48 h
# Experimental: as §1, §2
# [5] = test system: S. cerevisiae YFK007 (wild type); test: primary screen, zone size on agar; assay type: cell-based, Saccharomyces cerevisiae; details: 20 ng FK506, 10 mcg CsA, 10 mcg L733,560, 20 mcg aculeacin, 20 mcg papulacandin, 48 h
# Experimental: as §1, §2
# Chain of 1,3-beta-D glucan synthase from X2180-1A (P38631 whole entry): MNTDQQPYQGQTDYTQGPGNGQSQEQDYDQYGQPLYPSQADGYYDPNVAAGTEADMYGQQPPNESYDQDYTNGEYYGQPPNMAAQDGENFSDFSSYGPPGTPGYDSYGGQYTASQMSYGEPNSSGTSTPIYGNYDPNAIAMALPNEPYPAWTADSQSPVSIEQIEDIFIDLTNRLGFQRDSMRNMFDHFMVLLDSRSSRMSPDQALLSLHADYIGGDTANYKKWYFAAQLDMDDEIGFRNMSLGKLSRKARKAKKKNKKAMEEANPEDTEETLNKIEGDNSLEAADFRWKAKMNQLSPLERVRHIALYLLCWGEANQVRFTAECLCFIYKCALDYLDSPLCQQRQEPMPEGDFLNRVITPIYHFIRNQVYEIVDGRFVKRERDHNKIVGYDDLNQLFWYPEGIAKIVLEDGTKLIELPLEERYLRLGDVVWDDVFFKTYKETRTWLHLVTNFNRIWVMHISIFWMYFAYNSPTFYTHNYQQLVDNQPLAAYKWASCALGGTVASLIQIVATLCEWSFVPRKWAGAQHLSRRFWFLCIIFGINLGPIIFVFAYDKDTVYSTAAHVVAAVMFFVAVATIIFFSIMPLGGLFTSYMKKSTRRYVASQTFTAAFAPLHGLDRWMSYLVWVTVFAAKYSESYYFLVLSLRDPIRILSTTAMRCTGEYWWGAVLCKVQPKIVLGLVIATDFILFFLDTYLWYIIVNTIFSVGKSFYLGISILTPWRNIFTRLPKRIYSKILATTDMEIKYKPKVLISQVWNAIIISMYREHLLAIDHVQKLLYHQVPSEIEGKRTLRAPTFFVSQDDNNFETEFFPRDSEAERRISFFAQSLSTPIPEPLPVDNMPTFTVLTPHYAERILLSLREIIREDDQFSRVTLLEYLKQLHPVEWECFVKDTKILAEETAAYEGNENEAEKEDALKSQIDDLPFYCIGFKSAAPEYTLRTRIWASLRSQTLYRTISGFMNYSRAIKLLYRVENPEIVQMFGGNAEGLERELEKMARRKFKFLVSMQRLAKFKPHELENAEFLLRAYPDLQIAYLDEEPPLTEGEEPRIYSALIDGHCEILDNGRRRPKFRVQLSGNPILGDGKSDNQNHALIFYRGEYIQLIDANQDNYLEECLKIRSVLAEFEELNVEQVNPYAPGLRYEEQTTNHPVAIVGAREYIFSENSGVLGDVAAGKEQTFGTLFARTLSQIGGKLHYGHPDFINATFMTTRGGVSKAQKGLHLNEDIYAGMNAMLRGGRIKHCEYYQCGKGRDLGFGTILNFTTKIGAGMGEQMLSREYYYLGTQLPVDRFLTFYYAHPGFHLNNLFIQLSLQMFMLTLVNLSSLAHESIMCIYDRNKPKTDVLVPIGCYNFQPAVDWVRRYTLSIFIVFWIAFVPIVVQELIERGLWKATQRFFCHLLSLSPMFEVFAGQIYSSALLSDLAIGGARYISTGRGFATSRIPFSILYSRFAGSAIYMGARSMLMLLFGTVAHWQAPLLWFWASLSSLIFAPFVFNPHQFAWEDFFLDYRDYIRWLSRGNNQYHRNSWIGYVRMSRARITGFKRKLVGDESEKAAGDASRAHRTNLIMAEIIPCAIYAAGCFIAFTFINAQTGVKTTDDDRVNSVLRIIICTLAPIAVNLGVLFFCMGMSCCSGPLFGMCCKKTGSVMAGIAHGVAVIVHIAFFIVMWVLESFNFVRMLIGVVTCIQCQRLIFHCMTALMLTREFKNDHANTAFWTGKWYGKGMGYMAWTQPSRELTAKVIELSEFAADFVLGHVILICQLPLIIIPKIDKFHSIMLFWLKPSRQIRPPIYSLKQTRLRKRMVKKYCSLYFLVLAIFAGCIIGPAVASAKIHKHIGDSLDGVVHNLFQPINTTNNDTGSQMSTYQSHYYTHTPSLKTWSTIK
# Chain of 1,3-beta-D glucan synthase from X2180-1A (P06780 1-206, further chain): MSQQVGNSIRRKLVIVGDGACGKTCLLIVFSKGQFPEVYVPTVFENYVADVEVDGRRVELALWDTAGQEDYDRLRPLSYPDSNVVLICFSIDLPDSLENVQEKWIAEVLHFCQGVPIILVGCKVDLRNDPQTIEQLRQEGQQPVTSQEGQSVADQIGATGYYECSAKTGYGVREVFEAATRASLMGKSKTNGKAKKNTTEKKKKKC
substance,measurement,setting,value
"dihydropapulacandin [L-687,781]",resistance phenotype in liquid MIC assay,[1],resistance phenotype
same,Primary Screen Zone size (mm),[2],26-28 mm
same,IC50,[3],5.08 mg/L
same,reducing the number of cysts in the lungs of infected rats,Pneumocystis carinii,effective
same,Primary Screen Zone size (mm),[4],26-28 mm
same,Primary Screen Zone size (mm),[5],20-22 mm
